Reference: US20230017045A1, “PYRIDINE AND PYRIMIDINE CARBOXYLATE HERBICIDES AND METHODS OF USE THEREOF” (Dow AgroSciences LLC, priority 2017, published 2023)

system: test plant species; test: Post-emergent herbicidal activity test (greenhouse, foliar spray, visual growth reduction); format: in vivo; details: post-emergence, 336 h, ALOMY: blackgrass (Alopecurus myosuroides), 140 g ai/ha, 14 days after application, read-out: Visual Growth Reduction (%) 14 Days After Application, ALOMY
How it was run: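 Visual percent injury (0-100) rated 14 d after treatment, relative to nontreated and solvent-blank plants. Test plants at first or second true leaf stage received an overhead track-sprayer application at 187 L/ha. Compounds were formulated in aqueous acetone/DMSO carrier containing crop oil concentrate and X-77 surfactant.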

Compound	pest or weed control at 140 g/ha [%]
COC(=O)c1nc(-c2ccc(C(F)(F)F)cc2Cl)cc(Br)c1Cl [F41, methyl 4-bromo-3-chloro-6-(2-chloro-4-(trifluoromethyl)phenyl)picolinate]	0 to 29
O=C(O)c1nc(-c2ccc(SC(F)(F)F)cc2Cl)c(F)cc1Cl [F131, 3-Chloro-6-(2-chloro-4-((trifluoromethyl)thio)phenyl)-5-fluoropicolinic acid]	45 to 59

same assay, conditions: post-emergence, 336 h, AMARE: redroot pigweed (Amaranthus retroflexus), 140 g ai/ha, 14 days after application, read-out: Visual Growth Reduction (%) 14 Days After Application, AMARE

Compound	pest or weed control at 140 g/ha [%]
COC(=O)c1nc(-c2ccc(C(F)(F)F)cc2Cl)cc(Br)c1Cl [F41, methyl 4-bromo-3-chloro-6-(2-chloro-4-(trifluoromethyl)phenyl)picolinate]	0 to 29
O=C(O)c1nc(-c2ccc(SC(F)(F)F)cc2Cl)c(F)cc1Cl [F131, 3-Chloro-6-(2-chloro-4-((trifluoromethyl)thio)phenyl)-5-fluoropicolinic acid]	95 to 100

same assay, conditions: post-emergence, 336 h, AVEFA: wild oat (Avena fatua), 140 g ai/ha, 14 days after application, read-out: Visual Growth Reduction (%) 14 Days After Application, AVEFA

Compound	pest or weed control at 140 g/ha [%]
COC(=O)c1nc(-c2ccc(C(F)(F)F)cc2Cl)cc(Br)c1Cl [F41, methyl 4-bromo-3-chloro-6-(2-chloro-4-(trifluoromethyl)phenyl)picolinate]	0 to 29
O=C(O)c1nc(-c2ccc(SC(F)(F)F)cc2Cl)c(F)cc1Cl [F131, 3-Chloro-6-(2-chloro-4-((trifluoromethyl)thio)phenyl)-5-fluoropicolinic acid]	75 to 84

same assay, conditions: post-emergence, 336 h, CHEAL: lambsquarters (Chenopodium album), 140 g ai/ha, 14 days after application, read-out: Visual Growth Reduction (%) 14 Days After Application, CHEAL

Compound	pest or weed control at 140 g/ha [%]
COC(=O)c1nc(-c2ccc(C(F)(F)F)cc2Cl)cc(Br)c1Cl [F41, methyl 4-bromo-3-chloro-6-(2-chloro-4-(trifluoromethyl)phenyl)picolinate]	0 to 29
O=C(O)c1nc(-c2ccc(SC(F)(F)F)cc2Cl)c(F)cc1Cl [F131, 3-Chloro-6-(2-chloro-4-((trifluoromethyl)thio)phenyl)-5-fluoropicolinic acid]	95 to 100

same assay, conditions: post-emergence, 336 h, CIRAR: canada thistle (Cirsium arvense), 140 g ai/ha, 14 days after application, read-out: Visual Growth Reduction (%) 14 Days After Application, CIRAR

Compound	pest or weed control at 140 g/ha [%]
COC(=O)c1nc(-c2ccc(C(F)(F)F)cc2Cl)cc(Br)c1Cl [F41, methyl 4-bromo-3-chloro-6-(2-chloro-4-(trifluoromethyl)phenyl)picolinate]	0 to 29
O=C(O)c1nc(-c2ccc(SC(F)(F)F)cc2Cl)c(F)cc1Cl [F131, 3-Chloro-6-(2-chloro-4-((trifluoromethyl)thio)phenyl)-5-fluoropicolinic acid]	95 to 100

same assay, conditions: post-emergence, 336 h, CYPES: yellow nutsedge (Cyperus esculentus), 140 g ai/ha, 14 days after application, read-out: Visual Growth Reduction (%) 14 Days After Application, CYPES

Compound	pest or weed control at 140 g/ha [%]
COC(=O)c1nc(-c2ccc(C(F)(F)F)cc2Cl)cc(Br)c1Cl [F41, methyl 4-bromo-3-chloro-6-(2-chloro-4-(trifluoromethyl)phenyl)picolinate]	0 to 29
O=C(O)c1nc(-c2ccc(SC(F)(F)F)cc2Cl)c(F)cc1Cl [F131, 3-Chloro-6-(2-chloro-4-((trifluoromethyl)thio)phenyl)-5-fluoropicolinic acid]	0 to 29

same assay, conditions: post-emergence, 336 h, DIGSA: crabgrass (Digitaria sanguinalis), 140 g ai/ha, 14 days after application, read-out: Visual Growth Reduction (%) 14 Days After Application, DIGSA

Compound	pest or weed control at 140 g/ha [%]
COC(=O)c1nc(-c2ccc(C(F)(F)F)cc2Cl)cc(Br)c1Cl [F41, methyl 4-bromo-3-chloro-6-(2-chloro-4-(trifluoromethyl)phenyl)picolinate]	0 to 29
O=C(O)c1nc(-c2ccc(SC(F)(F)F)cc2Cl)c(F)cc1Cl [F131, 3-Chloro-6-(2-chloro-4-((trifluoromethyl)thio)phenyl)-5-fluoropicolinic acid]	95 to 100

same assay, conditions: post-emergence, 336 h, ECHCG: barnyardgrass (Echinochloa crus-galli), 140 g ai/ha, 14 days after application, read-out: Visual Growth Reduction (%) 14 Days After Application, ECHCG

Compound	pest or weed control at 140 g/ha [%]
COC(=O)c1nc(-c2ccc(C(F)(F)F)cc2Cl)cc(Br)c1Cl [F41, methyl 4-bromo-3-chloro-6-(2-chloro-4-(trifluoromethyl)phenyl)picolinate]	0 to 29
O=C(O)c1nc(-c2ccc(SC(F)(F)F)cc2Cl)c(F)cc1Cl [F131, 3-Chloro-6-(2-chloro-4-((trifluoromethyl)thio)phenyl)-5-fluoropicolinic acid]	60 to 74

same assay, conditions: post-emergence, 336 h, IPOHE: ivy-leaf morning glory (Ipomoea hederacea), 140 g ai/ha, 14 days after application, read-out: Visual Growth Reduction (%) 14 Days After Application, IPOHE

Compound	pest or weed control at 140 g/ha [%]
COC(=O)c1nc(-c2ccc(C(F)(F)F)cc2Cl)cc(Br)c1Cl [F41, methyl 4-bromo-3-chloro-6-(2-chloro-4-(trifluoromethyl)phenyl)picolinate]	0 to 29
O=C(O)c1nc(-c2ccc(SC(F)(F)F)cc2Cl)c(F)cc1Cl [F131, 3-Chloro-6-(2-chloro-4-((trifluoromethyl)thio)phenyl)-5-fluoropicolinic acid]	95 to 100

same assay, conditions: post-emergence, 336 h, KCHSC: kochia (Bassia scoparia), 140 g ai/ha, 14 days after application, read-out: Visual Growth Reduction (%) 14 Days After Application, KCHSC

Compound	pest or weed control at 140 g/ha [%]
COC(=O)c1nc(-c2ccc(C(F)(F)F)cc2Cl)cc(Br)c1Cl [F41, methyl 4-bromo-3-chloro-6-(2-chloro-4-(trifluoromethyl)phenyl)picolinate]	0 to 29
O=C(O)c1nc(-c2ccc(SC(F)(F)F)cc2Cl)c(F)cc1Cl [F131, 3-Chloro-6-(2-chloro-4-((trifluoromethyl)thio)phenyl)-5-fluoropicolinic acid]	95 to 100

same assay, conditions: post-emergence, 336 h, ORYSA: rice (Oryza sativa), 140 g ai/ha, 14 days after application, read-out: Visual Growth Reduction (%) 14 Days After Application, ORYSA

Compound	pest or weed control at 140 g/ha [%]
COC(=O)c1nc(-c2ccc(C(F)(F)F)cc2Cl)cc(Br)c1Cl [F41, methyl 4-bromo-3-chloro-6-(2-chloro-4-(trifluoromethyl)phenyl)picolinate]	0 to 29
O=C(O)c1nc(-c2ccc(SC(F)(F)F)cc2Cl)c(F)cc1Cl [F131, 3-Chloro-6-(2-chloro-4-((trifluoromethyl)thio)phenyl)-5-fluoropicolinic acid]	30 to 44

same assay, conditions: post-emergence, 336 h, SETFA: giant foxtail (Setaria faberi), 140 g ai/ha, 14 days after application, read-out: Visual Growth Reduction (%) 14 Days After Application, SETFA

Compound	pest or weed control at 140 g/ha [%]
COC(=O)c1nc(-c2ccc(C(F)(F)F)cc2Cl)cc(Br)c1Cl [F41, methyl 4-bromo-3-chloro-6-(2-chloro-4-(trifluoromethyl)phenyl)picolinate]	0 to 29
O=C(O)c1nc(-c2ccc(SC(F)(F)F)cc2Cl)c(F)cc1Cl [F131, 3-Chloro-6-(2-chloro-4-((trifluoromethyl)thio)phenyl)-5-fluoropicolinic acid]	85 to 94

same assay, conditions: post-emergence, 336 h, SORVU: grain sorghum (Sorghum vulgare), 140 g ai/ha, 14 days after application, read-out: Visual Growth Reduction (%) 14 Days After Application, SORVU

Compound	pest or weed control at 140 g/ha [%]
COC(=O)c1nc(-c2ccc(C(F)(F)F)cc2Cl)cc(Br)c1Cl [F41, methyl 4-bromo-3-chloro-6-(2-chloro-4-(trifluoromethyl)phenyl)picolinate]	0 to 29
O=C(O)c1nc(-c2ccc(SC(F)(F)F)cc2Cl)c(F)cc1Cl [F131, 3-Chloro-6-(2-chloro-4-((trifluoromethyl)thio)phenyl)-5-fluoropicolinic acid]	85 to 94

same assay, conditions: post-emergence, 336 h, STEME: common chickweed (Stellaria media), 140 g ai/ha, 14 days after application, read-out: Visual Growth Reduction (%) 14 Days After Application, STEME

Compound	pest or weed control at 140 g/ha [%]
COC(=O)c1nc(-c2ccc(C(F)(F)F)cc2Cl)cc(Br)c1Cl [F41, methyl 4-bromo-3-chloro-6-(2-chloro-4-(trifluoromethyl)phenyl)picolinate]	0 to 29
O=C(O)c1nc(-c2ccc(SC(F)(F)F)cc2Cl)c(F)cc1Cl [F131, 3-Chloro-6-(2-chloro-4-((trifluoromethyl)thio)phenyl)-5-fluoropicolinic acid]	0 to 29

same assay, conditions: post-emergence, 336 h, TRZAS: wheat, spring (Triticum aestivum), 140 g ai/ha, 14 days after application, read-out: Visual Growth Reduction (%) 14 Days After Application, TRZAS

Compound	pest or weed control at 140 g/ha [%]
COC(=O)c1nc(-c2ccc(C(F)(F)F)cc2Cl)cc(Br)c1Cl [F41, methyl 4-bromo-3-chloro-6-(2-chloro-4-(trifluoromethyl)phenyl)picolinate]	0 to 29
O=C(O)c1nc(-c2ccc(SC(F)(F)F)cc2Cl)c(F)cc1Cl [F131, 3-Chloro-6-(2-chloro-4-((trifluoromethyl)thio)phenyl)-5-fluoropicolinic acid]	60 to 74
